The results in this text go back to PMC8470274, “Comprehensive Investigation of Stereoselective Food Drug Interaction Potential of Resveratrol on Nine P450 and Six UGT Isoforms in Human Liver Microsomes” (Pharmaceutics, 2021).

One experiment has as its target T1, UGT1A4 (Homo sapiens, UniProt P22310).
T1 construct: native enzyme in pooled human liver microsomes (alamethicin-treated), read by trifluoperazine glucuronidation
T1 sequence (P22310 29-534): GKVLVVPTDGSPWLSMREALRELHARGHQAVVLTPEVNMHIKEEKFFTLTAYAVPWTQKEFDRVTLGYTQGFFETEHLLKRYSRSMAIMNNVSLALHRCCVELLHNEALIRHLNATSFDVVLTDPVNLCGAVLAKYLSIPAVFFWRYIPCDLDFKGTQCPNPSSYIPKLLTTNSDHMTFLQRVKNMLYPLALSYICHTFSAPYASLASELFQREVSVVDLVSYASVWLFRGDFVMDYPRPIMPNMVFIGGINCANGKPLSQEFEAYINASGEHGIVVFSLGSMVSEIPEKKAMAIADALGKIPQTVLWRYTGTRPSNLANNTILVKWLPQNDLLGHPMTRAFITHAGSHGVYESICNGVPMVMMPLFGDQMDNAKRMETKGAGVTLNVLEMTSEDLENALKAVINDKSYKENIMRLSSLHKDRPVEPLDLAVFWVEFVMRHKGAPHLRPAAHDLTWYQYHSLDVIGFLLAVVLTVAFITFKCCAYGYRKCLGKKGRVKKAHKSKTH
The experiment in a line: HLM UGT substrate cocktail, LC-MS/MS. As to conditions: trifluoperazine 0.5 µM; UDPGA 5 mM; alamethicin; 0.25 mg/mL HLM; 37 °C; read-out: Trans-Resveratrol. It counts as biochemical. An excerpt: HLM UGT substrate cocktail, LC-MS/MS on UGT1A4

The subject of experiment [1] is T2, CYP3A.
T2 construct: gene CYP3A4; native CYP3A in pooled human liver microsomes, read by midazolam 1'-hydroxylation (nifedipine as second probe)
In words: HLM substrate cocktail, LC-MS/MS. It counts as biochemical, Homo sapiens. Conditions: midazolam 0.1 µM, NADPH-generating system, 0.25 mg/mL HLM, 37 °C, without 30 min preincubation. An excerpt: HLM substrate cocktail, LC-MS/MS on CYP3A

The target in the next experiment is T3, UGT1A3 (Homo sapiens, UniProt P35503).
T3 construct: native enzyme in pooled human liver microsomes (alamethicin-treated), read by chenodeoxycholic acid 24-glucuronidation
T3 sequence (P35503 29-534): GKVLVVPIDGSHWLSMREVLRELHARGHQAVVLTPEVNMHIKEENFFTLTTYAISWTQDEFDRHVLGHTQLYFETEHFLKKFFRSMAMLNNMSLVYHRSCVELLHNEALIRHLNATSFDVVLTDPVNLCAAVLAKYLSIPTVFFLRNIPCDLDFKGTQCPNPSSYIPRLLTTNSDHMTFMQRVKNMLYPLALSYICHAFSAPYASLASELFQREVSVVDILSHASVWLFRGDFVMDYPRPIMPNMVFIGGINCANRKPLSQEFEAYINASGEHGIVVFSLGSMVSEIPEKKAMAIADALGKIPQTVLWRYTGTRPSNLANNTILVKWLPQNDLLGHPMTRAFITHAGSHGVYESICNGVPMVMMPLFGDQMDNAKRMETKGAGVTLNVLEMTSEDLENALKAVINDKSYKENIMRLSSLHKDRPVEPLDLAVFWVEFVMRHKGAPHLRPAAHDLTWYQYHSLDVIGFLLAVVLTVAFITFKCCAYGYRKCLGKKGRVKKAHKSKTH
In words: HLM UGT substrate cocktail, LC-MS/MS. The class given is biochemical. Conditions: chenodeoxycholic acid 2 µM; UDPGA 5 mM; alamethicin; 0.25 mg/mL HLM; 37 °C; read-out: Trans-Resveratrol. The source says:
HLM UGT substrate cocktail, LC-MS/MS on UGT1A3

Experiment [2] concerns the target T4, UGT1A1 (Homo sapiens, UniProt P22309).
T4 construct: native enzyme in pooled human liver microsomes (alamethicin-treated), read by SN-38 glucuronidation
T4 sequence (P22309 26-533): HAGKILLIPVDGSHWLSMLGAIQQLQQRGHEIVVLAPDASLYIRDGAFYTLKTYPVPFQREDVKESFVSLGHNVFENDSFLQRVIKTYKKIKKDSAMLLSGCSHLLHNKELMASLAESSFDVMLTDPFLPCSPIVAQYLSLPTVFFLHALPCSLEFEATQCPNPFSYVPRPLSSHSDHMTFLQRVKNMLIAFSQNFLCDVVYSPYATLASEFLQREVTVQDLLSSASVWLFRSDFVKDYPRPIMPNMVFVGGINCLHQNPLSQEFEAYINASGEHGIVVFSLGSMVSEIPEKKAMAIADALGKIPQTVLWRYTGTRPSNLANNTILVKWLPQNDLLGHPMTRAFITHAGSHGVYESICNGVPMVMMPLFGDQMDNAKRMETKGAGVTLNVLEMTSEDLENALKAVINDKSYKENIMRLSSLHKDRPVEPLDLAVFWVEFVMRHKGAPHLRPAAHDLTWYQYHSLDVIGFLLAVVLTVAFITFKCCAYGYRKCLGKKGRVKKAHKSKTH
In words: HLM inhibition kinetics, Dixon / Lineweaver-Burk, LC-MS/MS. The class given is biochemical. As to conditions: SN-38 0.5-10 µM; UDPGA; noncompetitive; read-out: trans-Resveratrol / Without Preincubation / Ki.

For experiment [3], the target named is T4, UGT1A1. The experiment in a line: HLM UGT substrate cocktail, LC-MS/MS. Conditions: SN-38 0.5 µM, UDPGA 5 mM, alamethicin, 0.25 mg/mL HLM, 37 °C. It counts as biochemical. The source says: HLM UGT substrate cocktail, LC-MS/MS on UGT1A1
Another experiment deals with T5, UGT1A6 (Homo sapiens, UniProt P19224).
T5 construct: native enzyme in pooled human liver microsomes (alamethicin-treated), read by N-acetylserotonin glucuronidation
T5 sequence (P19224 27-532): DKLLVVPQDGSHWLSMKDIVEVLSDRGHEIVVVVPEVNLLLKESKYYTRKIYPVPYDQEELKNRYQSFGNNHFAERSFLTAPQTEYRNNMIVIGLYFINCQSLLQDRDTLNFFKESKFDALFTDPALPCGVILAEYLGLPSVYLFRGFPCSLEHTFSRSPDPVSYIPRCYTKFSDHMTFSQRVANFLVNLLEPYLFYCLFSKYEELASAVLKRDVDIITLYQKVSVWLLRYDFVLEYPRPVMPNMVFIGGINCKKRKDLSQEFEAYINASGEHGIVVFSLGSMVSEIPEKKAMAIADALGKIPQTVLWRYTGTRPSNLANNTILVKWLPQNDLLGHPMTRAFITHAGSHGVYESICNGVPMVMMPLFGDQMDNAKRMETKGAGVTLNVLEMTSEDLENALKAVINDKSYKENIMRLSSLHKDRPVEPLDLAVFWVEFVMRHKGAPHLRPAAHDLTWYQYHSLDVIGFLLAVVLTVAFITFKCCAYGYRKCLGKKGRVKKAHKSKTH
The experiment in a line: HLM UGT substrate cocktail, LC-MS/MS. As to conditions: N-acetylserotonin 1 µM; UDPGA 5 mM; alamethicin; 0.25 mg/mL HLM; 37 °C; read-out: Trans-Resveratrol. It counts as biochemical. An excerpt:
HLM UGT substrate cocktail, LC-MS/MS on UGT1A6

The next experiment has as its target T6, UGT2B7 (Homo sapiens, UniProt P16662).
T6 construct: native enzyme in pooled human liver microsomes (alamethicin-treated), read by naloxone glucuronidation
T6 sequence (P16662 24-529): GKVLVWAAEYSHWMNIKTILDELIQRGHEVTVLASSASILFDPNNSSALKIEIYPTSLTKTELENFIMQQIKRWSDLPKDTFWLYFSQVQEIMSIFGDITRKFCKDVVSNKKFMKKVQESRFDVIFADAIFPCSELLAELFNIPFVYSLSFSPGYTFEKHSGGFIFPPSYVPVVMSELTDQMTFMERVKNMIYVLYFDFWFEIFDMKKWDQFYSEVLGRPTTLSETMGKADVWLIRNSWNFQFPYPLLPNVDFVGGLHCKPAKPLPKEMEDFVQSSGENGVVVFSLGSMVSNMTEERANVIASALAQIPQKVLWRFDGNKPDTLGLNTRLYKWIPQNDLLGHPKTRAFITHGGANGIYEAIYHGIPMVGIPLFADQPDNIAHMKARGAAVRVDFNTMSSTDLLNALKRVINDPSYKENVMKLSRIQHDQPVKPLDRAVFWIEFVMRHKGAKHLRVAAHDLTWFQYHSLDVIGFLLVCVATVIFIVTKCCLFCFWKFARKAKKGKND
In words: HLM UGT substrate cocktail, LC-MS/MS. As to conditions: naloxone 0.2 µM; UDPGA 5 mM; alamethicin; 0.25 mg/mL HLM; 37 °C; read-out: Trans-Resveratrol. It counts as biochemical. The source says: HLM UGT substrate cocktail, LC-MS/MS on UGT2B7

Another experiment deals with T7, CYP2A6 (Homo sapiens, UniProt P11509).
T7 construct: native enzyme in pooled human liver microsomes, read by coumarin 7-hydroxylation
T7 sequence (P11509 1-494): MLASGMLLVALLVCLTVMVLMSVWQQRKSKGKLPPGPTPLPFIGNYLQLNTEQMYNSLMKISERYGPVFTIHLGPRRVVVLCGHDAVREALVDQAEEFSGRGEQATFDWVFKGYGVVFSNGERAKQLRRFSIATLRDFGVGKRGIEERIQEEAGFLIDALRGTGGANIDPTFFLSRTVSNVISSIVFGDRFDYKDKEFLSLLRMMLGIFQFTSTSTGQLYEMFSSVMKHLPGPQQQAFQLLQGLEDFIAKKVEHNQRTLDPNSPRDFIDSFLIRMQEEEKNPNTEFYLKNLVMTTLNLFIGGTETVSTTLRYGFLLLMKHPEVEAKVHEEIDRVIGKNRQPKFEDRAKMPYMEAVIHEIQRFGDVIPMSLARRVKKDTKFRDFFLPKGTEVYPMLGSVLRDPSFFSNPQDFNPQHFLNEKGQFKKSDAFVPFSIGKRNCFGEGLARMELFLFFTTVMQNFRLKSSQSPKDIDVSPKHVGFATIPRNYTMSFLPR
The experiment in a line: HLM substrate cocktail, LC-MS/MS. The class given is biochemical. As to conditions: coumarin 1 µM; NADPH-generating system; 0.25 mg/mL HLM; 37 °C; without 30 min preincubation; read-out: Trans-resveratrol (μM) / Without Preincubation. The source says: HLM substrate cocktail, LC-MS/MS on CYP2A6

The target in a further experiment is T8, UGT1A9 (Homo sapiens, UniProt O60656).
T8 construct: native enzyme in pooled human liver microsomes (alamethicin-treated), read by mycophenolic acid glucuronidation
T8 sequence (O60656 26-530): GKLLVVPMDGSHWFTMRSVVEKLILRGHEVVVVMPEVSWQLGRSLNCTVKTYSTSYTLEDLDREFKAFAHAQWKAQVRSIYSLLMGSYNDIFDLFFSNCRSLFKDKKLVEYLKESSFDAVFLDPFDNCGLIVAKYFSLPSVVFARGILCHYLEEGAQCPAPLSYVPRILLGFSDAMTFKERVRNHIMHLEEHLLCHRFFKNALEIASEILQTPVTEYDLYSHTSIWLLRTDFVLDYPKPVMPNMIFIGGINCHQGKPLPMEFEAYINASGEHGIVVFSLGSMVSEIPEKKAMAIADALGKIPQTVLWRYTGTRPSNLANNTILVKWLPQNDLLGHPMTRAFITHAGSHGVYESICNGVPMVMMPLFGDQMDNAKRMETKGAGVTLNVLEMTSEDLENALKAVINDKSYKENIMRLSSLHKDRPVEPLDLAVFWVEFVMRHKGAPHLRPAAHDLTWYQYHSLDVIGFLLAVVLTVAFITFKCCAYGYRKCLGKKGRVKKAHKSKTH
The experiment in a line: HLM UGT substrate cocktail, LC-MS/MS. It counts as biochemical. As to conditions: mycophenolic acid 0.2 µM; UDPGA 5 mM; alamethicin; 0.25 mg/mL HLM; 37 °C; read-out: Trans-Resveratrol. The source says:
HLM UGT substrate cocktail, LC-MS/MS on UGT1A9

Experiment [4] addresses T2, CYP3A. In words: HLM inhibition kinetics, Dixon / Lineweaver-Burk, LC-MS/MS. As to conditions: midazolam 0.1-2 µM; NADPH-generating system; without preincubation; noncompetitive; read-out: trans-Resveratrol / Without Preincubation / Ki. It counts as biochemical, Homo sapiens.

The structures appear in SMILES notation. Read-outs that look alike come from different tables or passages of the source. Bounds are passed on as bounds.

For the compound `Oc1ccc(/C=C/c2cc(O)cc(O)c2)cc1` [A, 3,5,4′-Trihydroxystilbene], the IC50 at UGT1A4 is above 50 µM; in the experiment with CYP3A [1] (read-out: Trans-resveratrol (μM) / Without Preincubation), 29.2 ± 4.5 µM; on UGT1A3, above 50 µM; at UGT1A1 [3] (read-out: Trans-Resveratrol), 9.57 ± 1.6 µM; on UGT1A6, above 50 µM; at UGT2B7 it was above 50 µM. In addition, the IC50 at CYP2A6 and at UGT1A9 was above 50 µM in each case. Further, the Ki on UGT1A1 [2] is 27.4 ± 3.6 µM; at CYP3A [4] it was 23.8 ± 2.3 µM.
Take `Oc1ccc(/C=C\c2cc(O)cc(O)c2)cc1` [B, 3,5,4′-Trihydroxystilbene]: the IC50 at UGT1A4, in the experiment with CYP3A [1] (read-out: Cis-resveratrol (μM) / Without Preincubation), at UGT1A3, at UGT1A1 [3] (read-out: Cis-Resveratrol), at UGT1A6 and on UGT2B7 was above 50 µM throughout. The IC50 on CYP2A6 and on UGT1A9 was above 50 µM each time.
